We go through 23 compounds from patent US12145944B2, “Imidazopyrimidines as EED inhibitors and the use thereof” (THE REGENTS OF THE UNIVERSITY OF MICHIGAN, priority 2019, dated 2024).

Read-outs that look alike come from different tables or passages of the source.

Experiment [1] deals with KARPAS422 human B cell lymphoma cell. Nature of the experiment: Cell proliferation, KARPAS422, 7 day treatment (WST-8). The experiment is classed as cell-based. The conditions noted are these: Homo sapiens, KARPAS-422, 168 h, 7 day treatment, read-out: Karpas Cell line. The procedure:
(§1) “N/A” stands for “not assessed”.
Analysis of Cell Proliferation:
(§2) To assess the effect of PRC2 inhibition on cell growth, cells were seeded in 96-well cell culture plates at a density of 2 000-3 000 cells/well in 200 µL of culture medium, and treated with serially diluted compounds for 7 days at 37° C. in an atmosphere of 5% CO2. Cell growth was evaluated by a […] WST-8 assay (Dojindo Molecular Technologies) using a Tecan Infinite M1000 multimode microplate reader (Tecan, Morrisville, NC). The WST-8 reagent was added to the plate, incubated for 1-4 h, and read at 450 nm. The readings were normalized to the DMSO-treated cells, and the IC50 was calculated by nonlinear regression analysis using GraphPad Prism 6 software

The subject of another experiment is Pfeiffer cell line. Nature of the experiment: Anti-proliferative activity, Pfeiffer cell line, 7 day treatment. In kind it is cell-based. The conditions noted are these: Homo sapiens, 168 h, 7 day treatment, read-out: Pfeiffer Cell line. The procedure: as §1, §2
Where [2] appears, read: anti-proliferative IC50, Karpas 422 cell line.
Setting [3] is: anti-proliferative IC50, Pfeiffer cell line.
[4] abbreviates: anti-proliferative IC50 class, Karpas 422 cell line.
[5] abbreviates: anti-proliferative IC50 class, Pfeiffer cell line.

As for `O=C1c2ncn3c(NCc4c(F)ccc5c4CCO5)ncc(c23)-c2cnc(C(F)(F)F)cc2CN1C1CC(F)(F)C1` [compound 85, 4-(3,3-difluorocyclobutyl)-12-(((5-fluoro-2,3-dihydrobenzofuran-4-yl)methyl)amino)-7-(trifluoromethyl)-4,5-dihydro-3H-2,4,8,11,12a-pentaazabenzo[4,5]cycloocta[1,2,3-cd]inden-3-one], the IC50 turned out to be 2.71 nM in experiment [1] (setting [2]) and 0.13 nM in the experiment with Pfeiffer cell line (setting [3]).
`O=C1c2ncn3c(NCc4c(F)ccc5c4CCO5)ncc(c23)-c2ccc(C(F)(F)F)nc2CN1CC1(O)CC1` [compound 44, 12-(((5-fluoro-2,3-dihydrobenzofuran-4-yl)methyl)amino)-4-((1-hydroxycyclopropyl)methyl)-7-(trifluoromethyl)-4,5-dihydro-3H-2,4,6,11,12a-pentaazabenzo[4,5]cycloocta[1,2,3-cd]inden-3-one]: the figures for the IC50 (in experiment [1] (setting [2]); with Pfeiffer cell line (setting [3])) were 2.44 nM and 1.03 nM, respectively.
For the compound `O=C1c2ncn3c(NCc4c(F)ccc5c4CCO5)ncc(c23)-c2ccc(C(F)(F)F)nc2CN1C1CC1` [compound 41, 4-cyclopropyl-12-(((5-fluoro-2,3-dihydrobenzofuran-4-yl)methyl)amino)-7-(trifluoromethyl)-4,5-dihydro-3H-2,4,6,11,12a-pentaazabenzo[4,5]cycloocta[1,2,3-cd]inden-3-one], the IC50 came to 1.69 nM in experiment [1] (setting [2]) and 1.03 nM with Pfeiffer cell line (setting [3]).
For the compound `CCc1cnc2n1Cc1nc(C)ccc1-c1cnc(NCc3c(F)ccc4c3CCO4)n3cnc-2c13` [E 38, 5-ethyl-N-((5-fluoro-2,3-dihydrobenzofuran-4-yl)methyl)-8-methyl-6H-2,3,5a,7,12,13a-hexaazabenzo[4,5]cyclopenta[7,8]cycloocta[1,2,3-cd]inden-13-amine], the IC50 (in experiment [1] (setting [4]); in the experiment on Pfeiffer cell line (setting [5])) was 10 to 100 nM in each case.
For the compound `Cc1cccc(F)c1CNc1ncc2c3c(ncn13)COCc1ncccc1-2` [compound 1, N-(2-fluoro-6-methylbenzyl)-3H,5H-4-oxa-2,6,11,12a-tetraazabenzo[4,5]cycloocta[1,2,3-cd]inden-12-amine], the IC50 (in experiment [1] (setting [2]); with Pfeiffer cell line (setting [3])) was > 100 nM each time.
Take `O=C1NCc2ncccc2-c2cnc(NCc3c(F)ccc4c3CCO4)n3cnc1c23` [Cpd. No. 16, 12-(((5-fluoro-2,3-dihydrobenzofuran-4-yl)methyl)amino)-4,5-dihydro-3H-2,4,6,11,12a-pentaazabenzo[4,5]cycloocta[1,2,3-cd]inden-3-one]: the figures for the IC50 (in experiment [1] (setting [2]); in the experiment with Pfeiffer cell line (setting [3])) were 14.7 nM and 3.39 nM, respectively.
For the compound `O=C1OCc2cc(C(F)(F)F)ncc2-c2cnc(NCc3c(F)ccc4c3CCO4)n3cnc1c23` [compound 13, 12-(((5-fluoro-2,3-dihydrobenzofuran-4-yl)methyl)amino)-7-(trifluoromethyl)-3H,5H-4-oxa-2,8,11,12a-tetraazabenzo[4,5]cycloocta[1,2,3-cd]inden-3-one], the values for the IC50 (in experiment [1] (setting [2]); in the experiment with Pfeiffer cell line (setting [3])) were 9.03 nM and 1.99 nM, respectively.
Regarding `[2H]C([2H])(Nc1ncc2c3c(ncn13)C(=O)N(CC(F)(F)F)Cc1cc(C(=O)N(C)C)ccc1-2)c1c(F)ccc2c1CCO2` [E 24, 12-(((5-fluoro-2,3-dihydrobenzofuran-4-yl)methyl-d2)amino)-N,N-dimethyl-3-oxo-4-(2,2,2-trifluoroethyl)-4,5-dihydro-3H-2,4,11,12a-tetraazabenzo[4,5]cycloocta[1,2,3-cd]indene-7-carboxamide], the IC50 (in experiment [1] (setting [4]); with Pfeiffer cell line (setting [5])) was 10 to 100 nM throughout.
As to `O=C1c2ncn3c(NCc4c(F)ccc5c4CCO5)ncc(c23)-c2cnc(C(F)(F)F)cc2CN1CC1COCCO1` (stereo not drawn) [compound 37, 4-((1,4-dioxan-2-yl)methyl)-12-(((5-fluoro-2,3-dihydrobenzofuran-4-yl)methyl)amino)-7-(trifluoromethyl)-4,5-dihydro-3H-2,4,8,11,12a-pentaazabenzo[4,5]cycloocta[1,2,3-cd]inden-3-one], the IC50 in experiment [1] (setting [2]) was determined as 1.79 nM; in the experiment on Pfeiffer cell line (setting [3]), 0.25 nM.
As for `O=C1c2ncn3c(NCc4c(F)ccc5c4CCO5)ncc(c23)-c2ccsc2CN1C1CC1` [compound 88, 4-cyclopropyl-11-(((5-fluoro-2,3-dihydrobenzofuran-4-yl)methyl)amino)-4,5-dihydro-3H-6-thia-2,4,10,11a-tetraazacyclopenta[4,5]cycloocta[1,2,3-cd]inden-3-one], the IC50 in experiment [1] (setting [2]) stood at 25.7 nM; with Pfeiffer cell line (setting [3]), 0.035 nM.
Regarding `O=C1Nc2ccccc2-c2cnc(NCc3c(F)ccc4c3CCO4)n3cnc1c23` [Cpd. No. 3, 11-(((5-fluoro-2,3-dihydrobenzofuran-4-yl)methyl)amino)-2,4,10,11a-tetraazadibenzo[cd,f]azulen-3(4H)-one], the IC50 in the experiment on Pfeiffer cell line (setting [3]) came out at 84 nM.
As for `O=C1c2ncn3c(NCc4c(F)ccc5c4CCO5)ncc(c23)-c2ccc(C(F)(F)F)cc2CN1C1CCOCC1` [compound 60, 12-(((5-fluoro-2,3-dihydrobenzofuran-4-yl)methyl)amino)-4-(tetrahydro-2H-pyran-4-yl)-7-(trifluoromethyl)-4,5-dihydro-3H-2,4,11,12a-tetraazabenzo[4,5]cycloocta[1,2,3-cd]inden-3-one], the IC50 in experiment [1] (setting [2]) came out at 1.18 nM.
Regarding `O=C1c2ncn3c(NCc4c(F)ccc5c4CCO5)ncc(c23)-c2ccc(C(F)(F)F)nc2CN1CC1CCOC1` (stereo not drawn) [compound 52, 12-(((5-fluoro-2,3-dihydrobenzofuran-4-yl)methyl)amino)-4-((tetrahydrofuran-3-yl)methyl)-7-(trifluoromethyl)-4,5-dihydro-3H-2,4,6,11,12a-pentaazabenzo[4,5]cycloocta[1,2,3-cd]inden-3-one], the IC50 in experiment [1] (setting [2]) is 0.54 nM.
As to `CCOC(=O)c1ncn2c(NCc3c(F)cccc3OC)ncc(-c3ccccc3)c12` [compound 130, ethyl 5-((2-fluoro-6-methoxybenzyl)amino)-8-phenylimidazo[1,5-c]pyrimidine-1-carboxylate], in experiment [1] (setting [2]), the IC50 was > 100 nM.
As to `COc1cccc(F)c1CNc1ncc2c3c(ncn13)C(=O)N(C1CC1)Cc1nc(C(F)(F)F)ccc1-2` [compound 69, 4-cyclopropyl-12-((2-fluoro-6-methoxybenzyl)amino)-7-(trifluoromethyl)-4,5-dihydro-3H-2,4,6,11,12a-pentaazabenzo[4,5]cycloocta[1,2,3-cd]inden-3-one], the IC50 in experiment [1] (setting [2]) is > 100 nM.
As for `CC(F)(F)CN1Cc2cc(C(F)(F)F)ccc2-c2cnc(NCc3c(F)ccc4c3CCO4)n3cnc(c23)C1=O` [compound 63, 4-(2,2-difluoropropyl)-12-(((5-fluoro-2,3-dihydrobenzofuran-4-yl)methyl)amino)-7-(trifluoromethyl)-4,5-dihydro-3H-2,4,11,12a-tetraazabenzo[4,5]cycloocta[1,2,3-cd]inden-3-one], the IC50 in experiment [1] (setting [2]) amounted to 3.69 nM.
As for `CC(C)N1Cc2nc(C(F)(F)F)ccc2-c2cnc(NCc3c(F)ccc4c3CCO4)n3cnc(c23)C1=O` [compound 59, 12-(((5-fluoro-2,3-dihydrobenzofuran-4-yl)methyl)amino)-4-isopropyl-7-(trifluoromethyl)-4,5-dihydro-3H-2,4,6,11,12a-pentaazabenzo[4,5]cycloocta[1,2,3-cd]inden-3-one], in experiment [1] (setting [2]), the IC50 was determined as 39.9 nM.
For the compound `CC1(O)CC(CN2Cc3nc(C(F)(F)F)ccc3-c3cnc(NCc4c(F)ccc5c4CCO5)n4cnc(c34)C2=O)C1` (stereo not drawn) [compound 47, 12-(((5-fluoro-2,3-dihydrobenzofuran-4-yl)methyl)amino)-4-((3-hydroxy-3-methylcyclobutyl)methyl)-7-(trifluoromethyl)-4,5-dihydro-3H-2,4,6,11,12a-pentaazabenzo[4,5]cycloocta[1,2,3-cd]inden-3-one], the IC50 in experiment [1] (setting [2]) came to 0.65 nM.
As to `O=C1c2ncn3c(NCc4c(F)ccc5c4CCO5)ncc(c23)-c2ccc(C(F)(F)F)cc2CN1CC1COCCO1` (stereo not drawn) [compound 68, 4-((1,4-dioxan-2-yl)methyl)-12-(((5-fluoro-2,3-dihydrobenzofuran-4-yl)methyl)amino)-7-(trifluoromethyl)-4,5-dihydro-3H-2,4,11,12a-tetraazabenzo[4,5]cycloocta[1,2,3-cd]inden-3-one], in experiment [1] (setting [2]), the IC50 was 1.35 nM.
Consider `CCOC(=O)c1ncn2c(NCc3cc(OC)ccc3F)ncc(-c3ccccc3)c12` [compound 132, ethyl 5-((2-fluoro-5-methoxybenzyl)amino)-8-phenylimidazo[1,5-c]pyrimidine-1-carboxylate], for which the IC50 in experiment [1] (setting [2]) was > 100 nM.
As for `COCCN1Cc2nc(C(F)(F)F)ccc2-c2cnc(NCc3c(F)ccc4c3CCO4)n3cnc(c23)C1=O` [compound 57, 12-(((5-fluoro-2,3-dihydrobenzofuran-4-yl)methyl)amino)-4-(2-methoxyethyl)-7-(trifluoromethyl)-4,5-dihydro-3H-2,4,6,11,12a-pentaazabenzo[4,5]cycloocta[1,2,3-cd]inden-3-one], the IC50 in experiment [1] (setting [2]) came out at 2.63 nM.
On to `COc1cccc(F)c1CNc1ncc2c3c(ncn13)C(=O)N(C(C)C)Cc1nc(C(F)(F)F)ccc1-2` [compound 71, 12-((2-fluoro-6-methoxybenzyl)amino)-4-isopropyl-7-(trifluoromethyl)-4,5-dihydro-3H-2,4,6,11,12a-pentaazabenzo[4,5]cycloocta[1,2,3-cd]inden-3-one], for which, in experiment [1] (setting [2]), the IC50 is > 100 nM.
Still for that read-out and setting: as for `CC(C)(O)CN1Cc2cc(C(F)(F)F)ncc2-c2cnc(NCc3c(F)ccc4c3CCO4)n3cnc(c23)C1=O` [compound 48, 12-(((5-fluoro-2,3-dihydrobenzofuran-4-yl)methyl)amino)-4-(2-hydroxy-2-methylpropyl)-7-(trifluoromethyl)-4,5-dihydro-3H-2,4,8,11,12a-pentaazabenzo[4,5]cycloocta[1,2,3-cd]inden-3-one], the figure is 0.74 nM.
